Source: publication PMC4574608, “Genomic profiling of a Hepatocyte growth factor-dependent signature for MET-targeted therapy in glioblastoma” (Journal of Translational Medicine, 2015)
“Also recorded” adds a separate entry of the source.

How the values were obtained:
[1] = test system: U87MG cells; test: 3D cell invasion assay (spheroid dispersal on Matrigel); assay type: cell-based, human; details: at 50 μM, day 3
Experimental: U87MG cells were first grown in 1 % soft agar (Sigma) for 7 days to form spheroids. Each spheroid was then selected and placed onto Matrigel in a well to attach overnight (day 0), followed by treatment with DMSO or serially diluted compounds. Images were taken after an additional 3 days under a light microscope. Triplicates were tested for each concentration.

[2] = test system: G116 PDX model; test: GBM PDX therapeutic efficacy; assay type: in vivo, mouse; details: G116, highest HGF expression, single agent
Experimental: (§1) All animal studies were approved by the IACUC of Van Andel Research Institute. Subcutaneous and orthotopic tumor initiation were performed as previously described. The orthotopic tumor growth was measured by bioluminescence signal intensity (BLI) using a small animal optical imager AMI 1000 (Spectral Instruments Imaging, LLC). Dosing with V-4084 and/or erlotinib was delivered once daily by oral gavage for 3 weeks. Vehicles used were 0.5 % MC 400 with 0.05 % Tween 80 (for V-4084) and with 0.5 % (w/v) methyl cellulose (for erlotinib). To determine the effectiveness of treatment, the average tumor size of each group from the last measurement was analyzed with Student’s t test (p < 0.05).

[3] = test system: G91 PDX model; test: GBM PDX therapeutic efficacy; assay type: in vivo, mouse; details: G91, no HGF expression, single agent
Experimental: as §1

[4] = test system: KCI-10-40X1 tumors; test: EGFRamp PDX therapeutic efficacy; assay type: in vivo, mouse
Experimental: as §1
(§2) To induce acquired resistance, KCI-10-40X1cells were inoculated into nude mice subcutaneously followed by continuous erlotinib treatment (75–100 mg/kg). […] The same transplant procedure was serially repeated four times to establish the tumor model adaptive to erlotinib treatment (KCI-10-40X1/erl). […] A combination of V-4084 and erlotinib, however, retarded KCI-10-40X1/erl tumor growth (Fig. 5E).

[5] = test system: KCI-10-40X1/erl tumors; test: Erlotinib-resistant EGFRamp PDX therapeutic efficacy; assay type: in vivo, mouse; details: continued erlotinib treatment, discontinuing accelerated growth
Experimental: as §1, §2

SMILES | U87MG cell dispersal (anti-migratory activity) [1] | PDX tumor response to treatment [2] | PDX tumor response to treatment [3] | Time of continuous treatment until tumors regrow (start of acquired resistance) ([4]; KCI-10-40X1, continuous erlotinib 75–100 mg/kg) [weeks] | Tumor response to treatment ([4]; KCI-10-40X1 subcutaneous in nude mice, erlotinib 75 mg/kg, first week) | Tumor growth [5]
Cn1nnc2c(C(N)=O)ncn2c1=O [TMZ, Temozolomide] | failed to show any anti-migratory activity | – | – | – | – | –
C#Cc1cccc(Nc2ncnc3cc(OCCOC)c(OCCOC)cc23)c1 [erlotinib] | – | no effect | exactly the opposite | 5 | high sensitivity; also recorded: significant tumor regression | grow while on erlotinib treatment
